Assay results: patent US8729051B2, “Tri- and tetra-oligo-saccharides suitable as agglutination agents for enteric pathogens” (Nutrition Sciences N.V./S.A., priority 2006, dated 2014)

Experiments:
E. coli K88 cells = experiment: Pathogen agglutination, microscopic analysis; type: cell-based; details: 0.025%, pH 7.0, 10 minutes; versus xylose, penta- and deca-xylo-oligo-saccharides
Description: Tri and/or tetra-manno-oligo-saccharides were incubated in liquid at a dose of 0.025% at pH 7.0 with E. coli K88 and Lactobacillus amylovorus cells for 10 minutes. After 10 minutes, agglutination was visualised by means of microscopic analysis.

[1] = Chicken performance (weight, feed conversion); type: in vivo, chickens; details: feed with 3 ppm flavomycin or 0.025% oligo-saccharides
Source text: 3×40 one day old chickens were provided with following feeds: control feed, control feed supplemented with 3 ppm flavomycin and control feed supplemented with 0.025% tri- and/or tetra-manno-oligo-saccharides. The control feed was a mash feed, composed of raw materials suitable for animal nutrition. Water and feed were supplied ad libitum. The chickens were contaminated at day 2 with caecum contents of 3 week old chickens (most critical period for gastrointestinal problems). At regular time intervals, chickens were dissected and the enteric pathogen contents in the small intestine were determined by plate counting on MacConkey agar.
The same experimental conditions were applied as described in experiment 1. In this example, daily growth and feed conversion were monitored after 13 days.

Compound | agglutination, comparison of degree of polymerisation of xylo-oligo-saccharides (E. coli K88 cells) | Feed conversion/chicken ([1]; after 13 days) | Weight/chicken at day 1 ([1]; day 1) | Weight/chicken at day 13 ([1]; day 13)
OC1OC[C@@H](O[C@@H]2OC[C@@H](O[C@@H]3OC[C@@H](O)[C@H](O)[C@H]3O)[C@H](O)[C@H]2O)[C@H](O)[C@H]1O (some centres unmarked) [tri-xylo-oligo-saccharides] | best agglutination | – | – | –
flavomycin | – | 1.51 | 43.54 | 208.8
tetra-xylo-oligo-saccharides | best agglutination | – | – | –
